Laboratory results reported in a melting point compilation (Tetko et al.; mined from patent text by program, amines drawn as free bases though some values may be those of a salt).

| Compound | melting point [°C] |
| --- | --- |
| O=C(Nc1ccccc1-c1ccccc1)OCCCC(=O)c1ccccc1 | 87 to 89 |
| COc1ccc(C(=O)C=Cc2ccccc2O)c(OC)c1OC | 123 |
| Cc1cnc(CCCCn2cnc(NC(N)=NCC(F)(F)F)n2)nc1O | 235 to 237 |
| CC(=O)N1CCC(c2nn(-c3ccccc3)c3cc(Br)ccc23)CC1 | 136 to 138 |
| CC1CC(NC(=O)C(F)(F)F)=NN1c1ccc(Cl)cc1 (stereo unspecified) | 170 to 172 |
| CC(C)C(=O)Nc1cccc(-c2ccnc3c(C(=O)c4ccco4)cnn23)c1 | 189 to 191 |
| CCOC(=O)c1c(C(F)(F)F)nc(C(F)F)c(C(=O)OC)c1N(C)C1CC1 | 37 to 40 |
| O=C(NCc1ncccn1)c1cnc(N2CCC[C@H]2CO)nc1NCc1cccc(Cl)c1 | 153 to 156 |
| O=C(CN1CCN(C(c2ccc(F)cc2)c2ccc(F)cc2)CC1)Nc1cccc2ccccc12 | 173 |
| O=C(Nc1ccc(OC(F)(F)F)cc1)N[C@H]1CC[C@H](O)CC1 | 224 to 225 |
| O=c1oc(Nc2ccc(Oc3ccccc3)cc2)nc2sccc12 | 206 to 210 |
| CN(C)C(=O)c1ccc(C(=O)O)c(S(=O)(=O)NC(C)(C)C)c1 | > 260 |
| O=C(OC(c1ccccc1)c1ccccc1)C12CCC1CN(Cc1ccccc1)C2 (stereo unspecified) | 96 to 99 |
| O=C(O)C(Cc1ccccc1)C(=O)NOCc1ccccc1 (stereo unspecified) | 147 |
| O=C(O)c1cccc(-c2ncn(-c3ccc(N4CCCC4)cc3)n2)c1 | 263 to 265 |
| NC(=O)CN1CCC(C(=O)N2CCN3C(=O)OC(c4ccccc4)(c4ccccc4)C3C2)CC1 (stereo unspecified) | 253 to 255 |
| CCC1c2c(ncn2CC)CCN1C(=S)NC(C)C (stereo unspecified) | 195 |
| CC(=O)c1cccc(C(=O)O)c1O | 135 to 136 |
| Clc1ccccc1C1=NOCCS1 | 51 to 52 |
| CCCCCCCCC1(CCCCCCCC)c2cc(O)ccc2-c2ccc(Br)cc21 | 110 |
| CCCCC(O)(c1cn(C(c2ccccc2)(c2ccccc2)c2ccccc2)cn1)c1cc(Cl)cc2c1OC(C)(C)OC2 (stereo unspecified) | 124 |
| CN1C(=O)N(C)C(O)C1O (stereo unspecified) | 140 |
| Cc1ccc([C@@H]2CO[C@@H](c3ccc(C)cc3)CO2)cc1 | 200 |
| Cc1nc(-c2ccc(C(F)(F)F)cc2)oc1COc1ccc(OCC(=O)O)cc1 | 136 to 138 |

| Compound | melting point [°C] |
| --- | --- |
| NS(=O)(=O)c1cc(C(=O)OCC(=O)N2CCC(CCO[N+](=O)[O-])CC2)c(NCc2ccco2)cc1Cl | 170 |
| CNC(=O)c1cnc(Cl)c(Cl)c1 | 134 to 138 |
| CC(=NO)c1csc(S(N)(=O)=O)c1 | 185 to 188 |
| CCOC(=O)N1CCC(N(C)C(=O)c2ccc(Cl)c(Cl)c2)C12CCCCC2 (stereo unspecified) | 57 to 60 |
| CC(C)(C)OC(=O)N1CCC(NC(=O)c2ccc(-n3ncc4ccccc43)cc2)CC1 | 165 to 166 |
| O=C(Oc1ccccc1)Oc1c2c(nc3ccccc13)CCN(C(=O)Oc1ccccc1)CC2 | 232 |
| CCn1cc(CN(C(=O)C2CCCc3c(OCCCN(C)C)cccc32)c2ccc(C(C)C)cc2)cn1 (stereo unspecified) | 143 |
| C(=Cc1cncn1Cc1ccccc1)CC(c1ccccc1)c1ccccc1 | 204 to 206 |
| O=C(O)c1cc(Cl)c(Cl)c2c1OCC(CO)O2 (stereo unspecified) | 175 to 177 |
| Nc1ccc([C@H]2CC[C@H](NCCCc3ccccc3)CC2)cc1 | 60 to 63 |
| O=C1CC(SCc2ccccc2)N1 (stereo unspecified) | 50 to 51 |
| N#CCC(C#N)=CNc1c(Cl)cc(C(F)(F)F)cc1Cl | 122 |
| C[C@H](O)[C@@H](Nc1ccc(C#N)c(Cl)c1Cl)c1nnc(-c2ccccc2)o1 | 156 |
| CC(=O)N(C)C1CCNCC1 | < 50 |
| O=CN(O)C(CCO)CS(=O)(=O)c1ccc(-c2ccc(Cl)cc2)cc1 (stereo unspecified) | 158 to 159 |
| O=C(O)COc1cc(Cl)ccc1C(=O)NCc1ccc(Br)cc1 | 172 to 173 |
| COC(=O)Cc1nc2nc(C)cc(Cl)n2n1 | 111 to 112 |
| CCCCCCCCCCCCc1c[nH]c(C=O)c1 | 64 to 65 |
| Nc1cc2c(cc1Sc1ccccc1)CCC2 | 67 |
| CCCCCCCCCCCCCCCCCCNP1OCC2(CO1)COP(NCCCCCCCCCCCCCCCCCC)OC2 (stereo unspecified) | 67 to 70 |
| CCN(CC)CC(=O)Nc1ccc(NC(=O)Nc2ccc(N(CCCl)CCCl)cc2)cc1 | 209 to 211 |
| CN(C)C(=O)Nc1ccc(Cl)c(N)n1 | 139 to 141 |
| O[C@@H]1CN(Cc2ccccc2)C[C@H]1Sc1ccccc1 (relative stereo) | 97 to 99 |
| COC(=O)c1cc(OC)c(Cl)c(C)c1Cl | 74 |

Further lines, results first:

| melting point [°C] | Compound |
| --- | --- |
| 129 to 130 | COCC1CCCN1S(=O)(=O)c1ccc2c(c1)C1(OCCCO1)C1=NCCCN12 (stereo unspecified) |
| 135 to 137 | CC(C)Oc1ccc(CCN2CCC3(CC2)CNC(=O)CO3)cc1 |
| 142 to 145 | NC(=O)CCN1C(=O)C(=O)c2cc(F)ccc21 |
| 80 to 82 | CN1CC(Cc2ccccc2)OC1=O (stereo unspecified) |
| 248 to 251 | CCn1c(=O)[nH]c2cc3c(N4CCN(C(=O)Nc5ccc(Oc6ccccc6)cc5)CC4)ncnc3cc21 |
| 218 to 219 | N#CCCNC(=O)c1cccc(-c2ccc3ncn(Cc4ccc(Cl)cc4Cl)c3n2)c1 |
| 229 to 230 | CCCOc1ncc(C(C)=O)cc1-c1nc2c(CC)n(C3CN(C(C)=O)C3)nc2c(=O)[nH]1 |
| 245 to 247 | Cc1cc(O)n2nc(S(=O)(=O)Nc3ccccc3C(F)(F)F)nc2n1 |
| 94 to 96 | COc1c(F)ccc2c(C3CCN(C(=O)OC(C)(C)C)CC3)noc12 |
| 179 to 181 | CCCCC(CC)C(=O)Nc1ccc(-n2nc3ccc(C(F)(F)F)cc3n2)c(O)c1 (stereo unspecified) |
| 148 to 150 | Cc1cc(Cl)cc(C)c1NC(=O)N(CCC(C)(C)C)Cc1ccc(CC(C)(C)C)cc1 |
| 167 to 170 | COc1cc(OC)cc(-c2nnc(-c3cc(OC)cc(OC)c3)o2)c1 |
| 99 to 100 | COc1cc(NC(=O)CCCCCN2CCN(c3ccc(Cl)c(Cl)c3)CC2)c2nccc(C)c2c1 |
| 129 to 133 | Cc1c(C)c2c(c(C)c1N)CC(C)(C(=O)N1CCc3c([nH]c4ccccc34)C1)O2 (stereo unspecified) |
| 153 to 154 | COc1ccc(Nc2ccc(OC)c3ccccc23)cc1C(=O)O |
| 42 to 43 | CCONC(CC)=C1C(=O)CC(CCSc2ccc(Cl)cc2)CC1=O (stereo unspecified) |
| 195 to 198 | O=C(O)C1CCc2c(sc3cc(F)ccc23)C1 (stereo unspecified) |
| 142 to 143 | O=S(=O)(Nc1ccc2c(OCc3cccc(-c4cc(Cl)cc(Cl)c4)c3)cccc2c1)C(F)(F)F |
| 102 to 103 | CCNc1ccc(NC(C)=O)c(C)c1 |
| 194 to 195 | COc1ccc(-c2c(Cl)c(CCl)nc3sc4c(c23)CCN(Cc2ccccc2)C4)cc1 |
| 169 to 171 | CC(=O)OC(C(=O)O)(C(=O)N(C(C)=O)C(C)=O)c1ccc(Cl)c(C)c1 (stereo unspecified) |
| 79 to 81 | COc1cccc2c1OCN(CCc1ccccc1Cl)C2 |
| > 250 | CCc1cc(=O)n(-c2cc3[nH]c(=O)sc3cc2F)c(=O)n1C |
| 150 to 152 | COc1ccc(S(=O)(=O)c2cnc(C)nc2Cc2c(C)cc(C)cc2C)cc1 |
| 84 to 86 | CCN(CC)C(=O)n1cc(Cl)c(S(=O)(=O)c2c(C)cc(C)cc2C)n1 |
| 128 to 129 | CCC(=O)c1cccc(C(=O)Nc2ccccn2)c1 |
| > 290 | Cn1c(=O)c(-c2c(Cl)cccc2Cl)cc2cnc(S(C)(=O)=O)nc21 |

| melting point [°C] | Compound |
| --- | --- |
| 108 | COc1ccc(CNc2ccc(C#N)cc2)cc1F |
| 253 to 255 | COc1cc(OC)c(-c2cccnc2)cc1/C=C/C(=O)c1ccc(S(N)(=O)=O)cc1 |
| 133 to 136 | O=C1CCC(CN2C(=O)C3(COc4cc5c(cc43)CCO5)c3ccccc32)N1 (stereo unspecified) |
| 147 to 148 | CCCc1nn(-c2ccc(C(F)(F)F)cn2)cc1CCCCOc1cc(CC(=O)O)ccc1OC |
| 178 to 179 | COc1cc(OC)c2cc(C(=O)c3ccccc3)c(=O)oc2c1 |
| 138 to 139 | Cc1c(Cc2ccc(C(C)C)cc2)c2c(c(C)c1NC(=O)CC(C)(C)C)C(N(C)C)C(C)(C)O2 (stereo unspecified) |
| 85 to 87 | CCOC(=O)Cn1ccn2nc(-c3ccccc3)cc12 |
| 154 to 160 | CCOC(=O)Cn1c(=O)sc2cc(N)c(Cl)cc21 |
| 208 to 210 | COc1cc2nc(S(=O)Cc3nccc(N(C)C)c3F)[nH]c2cc1OC (stereo unspecified) |
| 153 to 154 | CCOC(=O)C(C)(NC(=O)Cc1ccc(O)c2ncccc12)C(=O)OCC |
| 162 | CCOC(=O)c1cccn1CCN1CCC(=C2c3ccn(C)c3CCn3ccnc32)CC1 |
| 215 to 217 | CCOc1cc2c(Nc3cc(OC)c(Cl)cc3Cl)c(C#N)cnc2cc1OCCOC |
| 240 to 255 | C[C@H](NC(=O)CCn1cc(C2=C(c3cn(C)c4ccccc34)C(=O)NC2=O)c2ccccc21)C(=O)O |
| 87 to 88 | CCNC(=O)/C=C/c1cccc(Cl)c1 |
| 168 to 170 | COc1cccc(CNC(=O)c2nc3ccc(SC)cc3c(=O)[nH]2)c1 |
| 116 to 117 | CCOC(=O)C=CNC(=O)Nc1ccc(Cl)c(C(=O)OCC)c1 |
| 231 to 232 | O=C(O)c1ccnc(-c2cccc3cc(Cc4cccc(C(F)(F)F)c4)sc23)c1 |
| 98 to 100 | CC(C)c1nc2ccccn2c(=O)c1-c1ccc(Cl)cc1 |
| 159 to 160 | O=C(N[C@H](Cc1cccc(OC(F)(F)C(F)F)c1)[C@@H](O)c1ccnc(F)c1)c1cccc2c1C=CCCC2 (racemic) |
| > 250 | CNC(=O)c1cccc2cccc(NC(=O)c3ccc(F)c(F)c3)c12 |
| 197 to 199 | CCOC(=O)c1cnc2c(NC(=O)c3c(Cl)cccc3Cl)cccc2c1S |
| 120 to 122 | Cc1cc(C)c(C(C#N)C=O)c(C)c1 (stereo unspecified) |
| 127 to 128 | CN1C(=O)C2(COc3cc4c(cc32)OCCO4)c2c(C(=O)NC3CC3)cccc21 (stereo unspecified) |
| 40 to 42 | C=CCc1cc(C(C)=O)c(OC)cc1OCCCCC#N |
| 192 to 193 | CC(C)n1c(N2CCN(C)CC2)nc2cc(Cl)c(N)cc21 |
| 160 to 162 | COC(=O)c1cc(N)cc(C=NO)c1 |
